These results are taken from PMC9775191, “A Subset Screen of the Compounds Australia Scaffold Library Identifies 7-Acylaminodibenzoxazepinones as Potent and Selective Hits for Anti-Giardia Drug Discovery” (Biomedicines, 2022).

The subject of assay [1] is methicillin resistant Staphylococcus aureus (ATCC 43300). The assay can be described thus: Anti-bacterial activity assay. It is filed as cell-based. To be noted: for inhibition at 50 µM: Staphylococcus aureus, ATCC43300, 50 µM, read-out: Bacterial Inhibition S. aureus. The procedure:
(§1) The activity of compounds against methicillin resistant Staphylococcus aureus (ATCC 43300), Escherichia coli (ATCC 25922), Acinetobacter baumannii (ATCC 19606) and Klebsiella pneumoniae (ATCC 700603) was assessed at 50 µM in duplicate as previously described. In brief, mid-log phase bacteria cultures were added to 384-well microtiter plate wells containing compound to final cell density of 5 × 10^5 CFU/mL in 50 µL. Plates were then covered and incubated at 37 °C for 18 h without shaking. Inhibition of bacterial growth was determined by measuring absorbance at 600 nm (Tecan M1000 Pro monochromator plate reader) and calculating percentage growth inhibition relative to the negative media and bacteria without inhibitors. Vancomycin hydrochloride (Sigma-Aldrich an affiliate of Merck KGaA, Darmstadt, Germany, #861987) and colistin sulfate (Sigma-Aldrich an affiliate of Merck KGaA, Darmstadt, Germany, C4461) were on each plate as positive controls for Gram-positive (S. aureus) and Gram-negative (E. coli, A. baumannii and K. pneumoniae) bacteria, respectively.

For assay [2], the system named is Acinetobacter baumannii (ATCC 19606). The experiment in a line: Anti-bacterial activity assay. To be noted: ATCC19606, 50 µM. It is filed as cell-based. The procedure: as §1
The subject of assay [3] is Escherichia coli (ATCC 25922). The experiment in a line: Anti-bacterial activity assay. In kind it is cell-based. The conditions noted are these: for inhibition at 50 µM: Escherichia coli, ATCC25922, 50 µM, read-out: Bacterial Inhibition E. coli. The method, then: as §1
The subject of assay [4] is Klebsiella pneumoniae (ATCC 700603). The experiment in a line: Anti-bacterial activity assay. It is filed as cell-based. To be noted: ATCC700603, 50 µM, read-out: Bacterial Inhibition K. pneumoniae. The procedure:
as §1

Assay [5] concerns Neonatal foreskin fibroblast (NFF) cells. The assay can be described thus: Mammalian cell cytotoxicity assay (sulforhodamine B). It is filed as cell-based, human. To be noted: for inhibition at 20 µM / IC50: Homo sapiens, NFF; for inhibition at 20 µM: ±SD; for SI (48h Gd): NFF vs 48 h Giardia IC50; for Selectivity: NFF IC50 divided by G. duodenalis BRIS/91/HEPU/1279 IC50. The procedure:
The selectivity of compounds of interest was assessed against NFF cells. Assays were performed using sulforhodamine B and included media only, negative (no compound, no DMSO), and vehicle (DMSO) controls as previously described. A chloroquine control plate was included in each assay. […] Repurchased SN00797640 was tested in dose–response from 100 µM against NFF. Selectivity indices (SI) were calculated by dividing mammalian cell IC50 values by G. duodenalis BRIS/91/HEPU/1279 IC50 values.

Assay [6] deals with G. duodenalis BRIS/91/HEPU/1279. The experiment in a line: Primary Giardia screen at 10 µM (live-cell imaging, automated counting). In kind it is cell-based, Giardia duodenalis. To be noted: for inhibition at 10 µM: Giardia duodenalis. In short, it runs like this: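 Singlicate, 10 μM final, 0.2% DMSO; sealed chambers, 3% O2/5% CO2/N2. Counts by live-cell imaging at 24 h and 48 h. % growth vs vehicle, media background subtracted; Z' per plate.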

Assay [7] shares this test system. The experiment in a line: Giardia dose response assay, assemblage B. It is filed as cell-based, Giardia duodenalis. The procedure: In these assays, compounds were serially diluted (8–12-point doubling dilutions in technical duplicate) in DMSO control media, with all test wells inoculated with parasites (1.5 × 10^4 parasites for BRIS/91/HEPU/1279 and BRIS/91/HEPU/1279m1, or 3 × 10^3 parasites for BRIS/87/HEPU/713). […] All plates were sealed in culture chambers and gassed with 3% O2, 5% CO2 in N2 and incubated at 37 °C for 48 h, with parasites imaged and enumerated at 24 and 48 h. Growth inhibition was calculated as a percentage relative to vehicle controls minus any background as described above and IC50 values were determined using log-linear interpolation as previously described. […] Statistical comparison of IC50 values when required were performed using Student’s t-test.

The mark [8] stands for this setting: 24 h, first singlicate assay, read-out: % Inhibition n=1 24h.
Setting [9] is: 24 h, re-assessment, read-out: % Inhibition n=2 24h.
[10] abbreviates: 24 h, read-out: Average % Inhibition 24h.
The mark [11] stands for this setting: 48 h, first singlicate assay, read-out: % Inhibition n=1 48h.
The mark [12] stands for this setting: 48 h, re-assessment, read-out: % Inhibition n=2 48h.
Setting [13] is: 48 h, read-out: Average % Inhibition 48h.
Where [14] appears, read: Giardia duodenalis, 24 h, read-out: G. duodenalis IC50 24h, Table S2, 24 h, ±SD, max 10 µM.
Setting [15] is: Giardia duodenalis, 48 h, Table S2, 48 h, ±SD, max 10 µM, read-out: G. duodenalis IC50 48h.
The mark [16] stands for this setting: Giardia duodenalis, 48 h, BRIS/91/HEPU/1279, 48 h, mean ± SD, read-out: IC50 Giardia (48 h).

Read-outs that look alike come from different tables or passages of the source.

In general, inhibition refers to the change of the read-out against control, counted positive when it falls. The IC50 is the concentration needed to halve the response being measured. For the compound `O=C(Nc1nc(-c2ccco2)c(-c2ccco2)s1)c1ccccc1` [SN00769776, O=C(Nc1sc(c2ccco2)c(n1)c1ccco1)c1ccccc1], the inhibition at 50 µM is 6.45% in assay [1], 23.4% in assay [2], 8.92% in assay [3] and 32.1% in assay [4]. In addition, the inhibition at 20 µM in assay [5] came out at 24.8 ± 11.7%. The inhibition at 10 µM in assay [6] (setting [8]) worked out at 35.4%; in assay [6] (setting [9]), 19%; in assay [6] (setting [10]), 27.2%; in assay [6] (setting [11]), 77.6%; in assay [6] (setting [12]) it was 64.8%; in assay [6] (setting [13]), 71.2%. For the same compound, the IC50 in assay [7] (setting [14]) and in assay [7] (setting [15]) was above 10 µM in each case.
On to `COc1cc(OC)c(C2=CCN(C(=O)c3ccc(C)s3)CC2)c(OC)c1` [SN00769982, COc1cc(OC)c(C2=CCN(CC2)C(=O)c2ccc(C)s2)c(OC)c1], for which the inhibition at 50 µM was found to be 3.41% in assay [1], 2.57% in assay [2], 6.08% in assay [3] and 15.6% in assay [4]. Moreover, the inhibition at 20 µM in assay [5] was -9.1 ± 3.8%. In addition, the inhibition at 10 µM was found to be 46.2% in assay [6] (setting [8]); 0% in assay [6] (setting [9]); 23.1% in assay [6] (setting [10]); 78.1% in assay [6] (setting [11]); 40.5% in assay [6] (setting [12]); 59.3% in assay [6] (setting [13]). The IC50 in assay [7] (setting [14]) was above 10 µM; in assay [7] (setting [15]), 9.59 µM.
With `O=[N+]([O-])c1ccc(N2CCC(c3ncc[nH]3)CC2)c2ccncc12` [SN00772378, O=N(=O)c1ccc(N2CCC(CC2)c2ncc[nH]2)c2ccncc12], the inhibition at 50 µM amounted to 34.4% in assay [1], 4.73% in assay [2], 5.55% in assay [3] and 15.6% in assay [4]. Besides, the inhibition at 20 µM in assay [5] came out at 1.2 ± 1%. Further, the inhibition at 10 µM came to 80.4% in assay [6] (setting [8]); 47.7% in assay [6] (setting [9]); 64% in assay [6] (setting [10]); 88.7% in assay [6] (setting [11]); 87.4% in assay [6] (setting [12]); 88% in assay [6] (setting [13]). Moreover, the IC50 in assay [7] (setting [14]) is above 10 µM; in assay [7] (setting [15]), 4.79 ± 1.45 µM.
For the compound `COc1ccc(-c2csc(C3=C(N)N(CC(C)(C)CN(C)C)CC3=O)n2)cc1OC` [SN00776314, COc1cc(ccc1OC)c1csc(n1)C1=C(N)N(CC1=O)CC(C)(C)CN(C)C], the inhibition at 50 µM was 13.2% in assay [1], 9.53% in assay [2], 5.58% in assay [3] and 10.9% in assay [4]. The inhibition at 20 µM in assay [5] is 24 ± 26.8%. The “SI (48h Gd)” value in assay [5] (Table S2) is recorded as above 2. Also, the inhibition at 10 µM was determined as 31.7% in assay [6] (setting [8]); 16.2% in assay [6] (setting [9]); 24% in assay [6] (setting [10]); 85.1% in assay [6] (setting [11]); 68.5% in assay [6] (setting [12]); 76.8% in assay [6] (setting [13]). The inhibition at 10 µM in assay [7] (Giardia duodenalis, read-out: % inhibition @ 10µM 48h (comment), Table S2 comment, 10 µM, 48 h) amounted to 48.3%. Further, the IC50 is above 10 µM in assay [7] (setting [14]) and 9.16 µM in assay [7] (setting [15]).
For `COc1ccc(C)cc1N1C(=O)C(c2ccccc2)C(c2nc3ccccc3s2)=C1N` (stereo not drawn) [SN00776374, COc1ccc(C)cc1N1C(=C(c2nc3ccccc3s2)C(c2ccccc2)C1=O)N], the inhibition at 50 µM is 16.6% in assay [1], 13.3% in assay [2], 2.94% in assay [3] and 11.7% in assay [4]. Moreover, the inhibition at 20 µM in assay [5] was found to be 100.4 ± 0.2%. Further, the “SI (48h Gd)” value in assay [5] (Table S2) is below 20. In addition, the “Average % Inhibition 48h” value in assay [6] (48 h) is listed as above 90%. The inhibition at 10 µM worked out at 90.5% in assay [6] (setting [8]); 90% in assay [6] (setting [9]); 90.3% in assay [6] (setting [10]); 95.8% in assay [6] (setting [11]); 97.6% in assay [6] (setting [12]); 96.7% in assay [6] (setting [13]). Further, the IC50 is 1.76 ± 0.35 µM in assay [7] (setting [14]) and 1.01 ± 0.29 µM in assay [7] (setting [15]).
For `Cc1cc(-c2cc(C(=O)Nc3c(C)n(C)n(-c4ccccc4)c3=O)c3cnn(C(C)C)c3n2)c(C)o1` [SN00776477], the inhibition at 10 µM in assay [6] (setting [11]) was 0%. Also, the IC50 in assay [7] (setting [16]) is above 10 µM.
On to `Cc1cc(-c2cc(C(=O)Nc3ccc(N4CCN(C)CC4)nc3)c3cnn(C(C)C)c3n2)c(C)o1` [SN00776497], for which the “Bacterial Inhibition S. aureus” value in assay [1] (50 µM) amounted to 56%. Besides, the inhibition at 50 µM worked out at 55.8% in assay [1], 19.6% in assay [2], 5.45% in assay [3] and 8.25% in assay [4]. Further, in assay [3] (E. coli, A. baumannii and K. pneumoniae / bacteria, Table S2), the “selectivity index over bacteria” value is recorded as above 600. Besides, the IC50 stood at 8.1 µM in assay [5] (mean ± SD, read-out: IC50 NFF); 0.25 ± 0.27 µM in assay [7] (setting [14]); 0.08 µM in assay [7] (setting [16]). In assay [5], the Selectivity came out at 101. The “SI (48h Gd)” value in assay [5] (Table S2) was found to be 101. Besides, the “Average % Inhibition 48h” value in assay [6] (48 h) is given as above 90%. Further, the inhibition at 10 µM in assay [6] (setting [8]) worked out at 94.6%; in assay [6] (setting [9]), 97.2%; in assay [6] (setting [10]), 95.9%; in assay [6] (setting [11]), 98%; in assay [6] (setting [12]), 98.5%; in assay [6] (setting [13]) it was 98.2%. The “fold more potent than metronidazole” value in assay [7] (48 h IC50) was above 30 fold.
As for `CCc1ccc(C(=O)Nc2ccc3c(c2)Oc2ccccc2C(=O)N3C)cc1` [SN00797643], the IC50 in assay [5] (mean ± SD, read-out: IC50 NFF) was above 10 µM; in assay [7] (setting [16]), 0.47 µM. In assay [5], this compound registered a Selectivity above 20.
Turning to `CN1C(=O)c2ccccc2Oc2cc(NC(=O)c3cc4ccccc4[nH]3)ccc21` [SN00797648], the IC50 in assay [5] (mean ± SD, read-out: IC50 NFF) was above 20 µM; in assay [7] (BRIS/91/HEPU/1279, 48 h, mean ± SD, read-out: IC50 Giardia (48 h)), 1.7 µM; in assay [7] (setting [16]) it was 1.4 µM. Moreover, the Selectivity in assay [5] is above 11.
For the compound `CCOc1ccc(C(=O)Nc2ccc3c(c2)N(C(C)C)C(=O)c2ccccc2O3)cc1` [SN00797660], the inhibition at 10 µM in assay [6] (setting [11]) came to 33.8%. Moreover, the IC50 in assay [7] (setting [16]) was above 10 µM.
For `Cc1cc2[nH]c(C(=O)Nc3ccccc3C)c(CN3CCOCC3)c2s1` [SN00798525, Cc1cc2[nH]c(C(=O)Nc3ccccc3C)c(CN3CCOCC3)c2s1], the inhibition at 50 µM in assay [1] was 22.2%; in assay [2], 4.92%; in assay [3], -0.27%; in assay [4] it was 6.11%. Moreover, the IC50 in assay [5] (Table S2, max 10 µM, read-out: NFF IC50) is above 10 µM. Moreover, the “Average % Inhibition 48h” value in assay [6] (48 h) is on record as above 90%. Moreover, the inhibition at 10 µM worked out at 91.4% in assay [6] (setting [8]); 97.9% in assay [6] (setting [9]); 94.7% in assay [6] (setting [10]); 96.5% in assay [6] (setting [11]); 98.8% in assay [6] (setting [12]); 97.6% in assay [6] (setting [13]).
